In ChEMBL document CHEMBL1157539, “Thousands of chemical starting points for antimalarial lead identification” (Nature, 2010) one finds XC50 data, which are given here for 63 molecules.

In the assay the test system is Plasmodium falciparum. Kind of assay: GSK_TCMDC: Inhibition of Plasmodium falciparum 3D7 in whole erythrocytes, using parasite LDH activity as an index of growth. It is filed as functional, organism-based. The settings on record: Plasmodium falciparum, 3D7.
With `CCN(CC)CCN(Cc1ccc(-c2ccc(C(F)(F)F)cc2)cc1)C(=O)Cn1c(CCc2cccc(F)c2F)nc(=O)c2ccc(F)cc21`, the XC50 came out at 360 nM.

In turn, `O=C(Nc1ccc(OC2CCN(Cc3ccc(F)cc3)C2)c(Cl)c1)c1ccccc1` (stereo not drawn) displayed an XC50 of 787 nM. Molecule `Oc1ccccc1CN1CCC2(CCCN(Cc3ccccc3F)C2)C1` (stereo not drawn) registered an XC50 of 679 nM. Then `Cc1cc(CN2CCC(Nc3ncc(-c4ccsc4)c4nc(C(F)(F)F)ccc34)CC2)no1`, with 1100 nM. `COc1ccc(-c2cnc3[nH]cc(-c4ccc(C(=O)O)c(C)c4)c3c2)cn1` returned an XC50 of 311 nM. Then `CC(C)(C)C(=O)Nc1ccc(N2CCN(C(c3ccccc3)c3ccccc3)CC2)c(Cl)c1`, with 662 nM; and `Cc1nn(CC(O)Cn2c3ccc(Br)cc3c3cc(Br)ccc32)c(C)c1Br` (stereo not drawn), with 713 nM; and `Cc1cc(N[C@@H](Cc2ccccc2)C(=O)NCc2cccc(F)c2)nc(Nc2ccccc2)n1`, with 930 nM. Then `NCC(=O)c1cc2c(cc1N)OCCO2`, with 1360 nM; and `CN1CCN(CC(=O)Nc2ccc(-c3cccc(-c4nc5cc(C(F)(F)F)ccc5[nH]4)c3)cc2)CC1`, with 399 nM. Regarding `Cc1cccc2nc(-c3ccc(-c4cccc(NC(=O)c5cnccc5C(F)(F)F)c4)cc3)[nH]c12`, the XC50 is 998 nM. The value for `CC(C)c1ccc2[nH]c(C(=O)NC3CCC(N4CCCc5ccc(C#N)cc5C4)CC3)cc2c1` (stereo not drawn) was 1090 nM; that for `O=C(NCCCCN1CCC(c2ccc3c(c2OCc2ccncc2)CCCC3)CC1)c1ccc(-c2ccc(C(F)(F)F)cc2)cc1` was 168 nM; that for `Cc1c(C)n(Cc2ccccc2)c2ncnc(OC3CCN(CC(=O)NCC4CC4)CC3)c12` was 1120 nM. As to `CCCCCCCCNCC(O)c1cc(-c2ccc(Cl)cc2)nc2cc(C)ccc12` (stereo not drawn), the XC50 was 82.3 nM.

Regarding `CCCCNCc1ccc(-c2nc(CN(CCCN3CCN(C)CC3)C(=O)Nc3cccc(Cl)c3)cs2)cc1`, the XC50 came out at 967 nM. On to `OC(CNCCCCCCNCC(O)c1ccc(Cl)c(Cl)c1)c1ccc(Cl)c(Cl)c1` (stereo not drawn), for which the XC50 is 915 nM. For the molecule `COc1c(C2CCN(CCCCNC(=O)c3ccc(-c4ccc(Cl)cc4)cc3)CC2)ccc2c1C(C)(C)CCC2(C)C`, the XC50 turned out to be 777 nM. Then `CS(=O)(=O)c1ccc(CNCc2ccc(-c3ccc(-c4nc5cc(C(F)(F)F)ccc5[nH]4)cc3)cc2)cc1`, with 706 nM; and `COc1ccc(NC(=O)/C=C/c2ccccc2Cl)cc1OCCN1CCC(N(C)C)CC1`, with 969 nM. Consider `c1ccc2[nH]c(Nc3ccc(Nc4nc5ccccc5[nH]4)cc3)nc2c1`, for which the XC50 is 783 nM.

In turn, `c1ccc(Oc2ccc(Nc3ccnc4cc(-c5ccc(CNCCN6CCOCC6)o5)ccc34)cc2)cc1` came in with an XC50 of 439 nM. Molecule `O=S(=O)(NCCN1CCCC1)c1ccc(-c2ccccc2CNC2Cc3ccccc3C2)cc1` displayed an XC50 of 847 nM. Molecule `c1ccc2[nH]c(-c3ccc(-c4ccc(CN5CCN(c6ccncc6)CC5)cc4)s3)nc2c1` gave an XC50 of 202 nM. Take `Cc1cc(N[C@@H](CC(C)C)C(=O)NCc2cccs2)nc(Nc2ccccc2)n1`: the XC50 was 1130 nM.

For `COc1ccc2nccc([C@@H](O)CN3CCC(NCc4cnc5snnc5c4)C(F)C3)c2c1` (stereo partly drawn), the XC50 came out at 1350 nM. Then `O=C(/C=C/c1ccc(Cl)c(Cl)c1)NCC1CCN(Cc2ccc(O)cc2)CC1`, with 694 nM. For the molecule `COc1ccc(-c2nc(NC(=O)CS(=O)(=O)c3ccc(C)cc3)sc2C)cc1`, the XC50 was found to be 401 nM. `NC1=NC(c2ccccc2)(c2ccccc2)C(=O)N1Cc1ccc(-c2cccnc2)cc1`: the XC50 was 704 nM.

`CN(C)CCOc1cc(NC(=O)Nc2ccc(-c3ccncc3)c(Cl)c2)ccc1I` registered an XC50 of 143 nM. In the case of `CC(C)(Oc1c(C2CCN(CCCCNC(=O)c3ccc(-c4ccc(Cl)cc4)cc3)CC2)ccc2c1CCCC2)C(N)=O`, the XC50 came to 1090 nM. Consider `CCCCCCNC(=O)C1Cc2c([nH]c3ccc(C)cc23)C2(CCN(CCc3ccccc3)CC2)N1` (stereo not drawn), for which the XC50 stood at 1270 nM. As to `O=C(Nc1cccc(CN2CCCN(Cc3cccc(F)c3)CC2)c1)c1ccc(Cl)c(Cl)c1`, the XC50 was 923 nM. For the molecule `CCc1n[nH]c(C(=O)Nc2cccc(N3CCCC3)c2)c1C`, the XC50 was 1460 nM.

The molecule `O=C(Nc1ccc(Cl)cc1)c1ccc(CN2CCCN(Cc3ccccc3)CC2)cc1` came in with an XC50 of 753 nM. `N#Cc1cccc(C(=O)Nc2cccc(-c3cccc(CN4CCNCC4)c3)c2)c1` registered an XC50 of 947 nM. The value for `CCc1c(CCNCC/C=C/CCNCCc2ccc(OC)c(OC)c2CC)ccc(OC)c1OC` was 771 nM; that for `N#Cc1ccc2c(c1)CCN(CCC1CCC(NC(=O)Nc3cnc4ccccc4c3)CC1)C2` (stereo not drawn) was 768 nM. `Cc1ccc(NC(=O)Nc2ccc(Br)cc2)cc1OCCN(C)C` had an XC50 of 975 nM. Then `N#Cc1ccc2c(c1)CCN(CCC1CCC(NC(=O)c3cc4ccc(Br)cc4[nH]3)CC1)C2` (stereo not drawn), with 756 nM; and `CN1CCN(Cc2ccc(-c3cccc(-c4nc5ccccc5[nH]4)c3)cc2)CC1`, with 1390 nM; and `CCNc1cc(C)nc(Nc2ccc(NS(=O)(=O)c3ccccc3)cc2)n1`, with 791 nM. `c1ccc(CCNCc2ccc(-c3cccc(-c4nc5ccccc5[nH]4)c3)cc2)nc1` registered an XC50 of 619 nM. Then `Cc1cc(-c2cccc(CNC3CCN(C)CC3)c2)ccc1S(=O)(=O)NCc1ccccc1`, with 819 nM. Then `O=C(c1ccc(Cl)cc1)N1CCCC(C(=O)N(Cc2nnc(-c3ccccc3Cl)o2)C2CC2)C1` (stereo not drawn), with 227 nM. As to `Nc1ccc(-c2cc(Cl)cc(Cl)c2)cc1-c1cc2ccccc2[nH]1`, the XC50 stood at 695 nM. The molecule `CCOC(=O)c1c(C)n(-c2ccc(Cl)cc2)c2ccc(OC(=O)C=Cc3ccccc3)cc12` gave an XC50 of 698 nM. Turning to `COc1ccc(-c2cnc3ccc(NCCCO)nn23)cc1OC`, the XC50 was 672 nM. Molecule `CCCCCC(C)c1cc(O)c2c(c1)OC(C)(C)C=C2C1=CCN(Cc2ccccc2)CC1` (stereo not drawn) displayed an XC50 of 780 nM. Take `Cc1[nH]c2cc(Cl)ccc2c1C1=CCN(CCCCC2(C)C(=O)Nc3ccccc32)CC1` (stereo not drawn): the XC50 stood at 333 nM.

Take `CC(=O)Nc1cccc(C(=O)Nc2ccc(-c3ccc(-c4nc5cccc(C)c5[nH]4)s3)cc2)c1`: the XC50 is 1740 nM. The value for `Cc1ccc(CNC(=O)c2cnc(N3CCN(c4ccncc4)CC3)c(Cl)c2)cc1` was 1290 nM. Consider `Cc1cc(N2CCCCC2)nc2ccc(NC(=O)c3cncc(Br)c3)cc12`, for which the XC50 was found to be 718 nM. Then `CC[C@H](C)CNC(=O)c1cncc(-c2cccc(CNCCCc3ccccc3)c2)c1`, with 1170 nM; and `O=C(NC1CCN(Cc2ccccc2)CC1)c1cccc(-c2nc3ccc(Cl)cc3[nH]2)c1`, with 864 nM; and `CCOc1ccc2[nH]c(-c3ccccc3)cc(=NN=Cc3ccncc3)c2c1`, with 149 nM. Take `CN1CCC(N2CCN(Cc3ccc(-c4cccc(-c5nc6ccccc6[nH]5)c4)cc3)CC2)CC1`: the XC50 came to 145 nM. `COc1ccc(-n2ccnc2SCC(=O)Nc2cccc(C(F)(F)F)c2)c(OC)c1`: the XC50 came out at 220 nM.

For `CC(C)(C)OC(=O)NCC(=O)N(Cc1ccccc1)Cc1ccccc1`, the XC50 came to 124 nM. The molecule `CN(Cc1ccccc1)C1CCN(CCc2c[nH]c3ccc(F)cc23)CC1` showed an XC50 of 597 nM. Turning to `Cn1c(N)cc(-c2cccc(I)c2)c2c(=O)nc(N)nc1-2`, the XC50 stood at 269 nM.

As to `OC(CNC1CCCCC1)Cn1c2ccc(I)cc2c2cc(I)ccc21` (stereo not drawn), the XC50 turned out to be 337 nM.

In the case of `Cc1cc(N)c2cc(NC(=O)/C=C/c3ccccc3Cl)ccc2n1`, the XC50 turned out to be 405 nM.
